Read-outs that look alike come from different tables or passages of the source.
Legend:
female mice = test system: female mice
Protocol: According to the skin sensitization test based on the Local Lymph Node Assay (LLNA), the SI value was measured in the following manner.
As positive control material, α-hexylcinnamaldehyde (HCA; product of Wako Pure Chemical Industries, Ltd.) was used.
As a medium, a liquid mixture containing acetone (product of Wako Pure Chemical Industries, Ltd.) and olive oil (product of Fudimi Pharmaceutical Co., Ltd.) in a volume ratio of 4 to 1 was used.
Before the test, female mice were acclimated about the test substances, the positive control, the medium control for 8 days including 6-day quarantine.
Based on the body weights measured two days before the initiation of sensitization, they were categorized into two groups (four mice/group) by the body weight stratified random sampling method so that the body weight of each individual was within ±20 percent of the average body weight of all the individuals. Each of the animals for the test was eight to nine weeks old at the time of the initiation of sensitization. The individuals remaining after the categorization were excluded from the test.
The test substance was weighed in a measuring flask, and the volume of the test substance was adjusted to 1 mL with the medium. The thus-prepared test substance preparation was placed in a light-shielded airtight container (made of glass).
Prepared liquids and media of each of the test substance and positive control substance were applied to both auricles of the animal in an amount of 25 μL of each. A micropipettor was used for application. This treatment was performed once a day for three consecutive days.
About 48 hours after the final sensitization, the BrdU preparation liquid (0.5 mL) was intraperitoneally administered once to each of the animals.
About 24 hours after the administration of BrdU, the tested animals were allowed to undergo euthanasia, and their auricular lymph nodes were sampled. The surrounding tissue of each auricular lymph node was removed, and the auricular lymph nodes from both the auricles were collectively weighed. Also, the average and standard error of the weights of the auricular lymph nodes were calculated for each group. After the measurement of the weights, the auricular lymph nodes of each individual were stored in a frozen state using a biomedical freezer set to −20 degrees C.
After returning the auricular lymph nodes to room temperature, the auricular lymph nodes were mashed with the gradual addition of physiological saline, and suspended therein. The thus-obtained suspension was filtrated and thereafter dispensed into the wells of a 96-well microplate, with 3 wells being used per individual. The thus-dispensed suspensions were measured for intake of BrdU by the ELISA method. The reagents used were those of a commercially available kit (Cell Proliferation ELISA, BrdU colorimetric, Cat. No. 1647229, product of Roche Diagnostics Inc.). A multiplate reader (FLUOSTAR OPTIMA, product of BMG LABTECH Inc.) was used to measure the absorbance of each well (OD: 370 nm to 492 nm, the intake of BrdU), and the average of the absorbance of the 3 wells for each individual was used as the measurement of BrdU for the individual.
As shown in the following formula, the measurement of BrdU intake for each individual was divided by the average of the measurements of BrdU intake in the vehicle control group to calculate the SI value for the individual. The SI value of each test group was the average of the SI values of the individuals. […] SI=(Average (average of 3 well) of BrdU measuring value of individual)/(Average (average of four animals) of BrdU measuring value of medium control group) Relation 1

[1] = in vivo
[2] = assay type: cell-based; conditions: OECD test guideline TG471 (±S9mix)
[3] = Oral toxicity according to OECD Test Guideline TG423; assay type: in vivo
[4] = LLNA, BrdU intake by ELISA, mice, test substance 50.0 w/v percent in acetone/olive oil 4:1, 25 μL per auricle once per day × 3 days

Row | Compound | SI (stimulation index) (female mice; [4]) | SI (stimulation index) (female mice; female, mouse, in vivo, 3 days) | other results
1 | C=CC(=O)N(C)CC(=O)OC [Example A1-1, N-acryloyl-N-methyl glycine methyl ester] | (See Synthesis Example 1) SI = 1.00 |  | SI value (skin sensitivity) (female mice; OECD Test Guideline TG442B): 1.00; PII (skin irritation) [1]: 0.5; AMES test [2]: negative; Oral toxicity, cases died [3]: 0 out of 6; LD50 ([3]; in vivo, 2000 mg/kg): ≥ 2000 mg/kg
2 | C=CC(=O)N(CC(=O)OC)C(C)C [Example A1-3, N-acryloyl-N-isopropyl glycine methyl ester] |  | (See Synthesis Example 3) SI = 1.05 | 
3 | C=CC(=O)N(C)[C@@H](C)C(=O)OC [Example A1-4, N-acryloyl-N-methyl alanine methyl ester] |  | (See Synthesis Example 4) SI = 1.12 | 
4 | C=CC(=O)N(C)[C@@H](C)C(=O)OC(C)C [Example A1-6, N-acryloyl-N-methyl alanine isopropyl ester] |  | (See Synthesis Example 6) SI = 1.21 | 
5 | C=CC(=O)N1CCC(C(=O)OCC)CC1 [Example A1-7, N-acryloyl-piperidine-4-ethyl carboxylate] |  | (See Synthesis Example 7) SI = 1.70 | 
6 | C=C(C)C(=O)OCCO [Example A2-1, 2-hydroxyethyl methacrylate, reference compound] | 2-hydroxyethyl methacrylate, SI = 1.26, Manufactured by Tokyo Chemical Industry Co. Ltd.. |  | 
7 | C=C(C)C(=O)OCCOCCOC(=O)C(=C)C [Example B1-1, diethylene glycol dimethacrylate] |  | 2G, SI = 1.05, manufactured by Shin-Nakamura Chemical Co.,Ltd. | 
8 | C=C(C)C(=O)OCC(CC)(COC(=O)C(=C)C)COC(=O)C(=C)C [Example B1-3, trimethylol propane trimethacrylate] | TMPT, SI = 1.03, manufactured by Shin Nakamura Chemical Co., Ltd. |  | 
9 | C=C(C)C(=O)OCC(COC(=O)C(=C)C)OC(C)=O [Example B1-6, 2-acetyl-1,3-glycerol dimethacrylate] |  | (See Synthesis Example 8) SI = 1.40 | 
10 | C=CC(=O)OCC(CC)(COC(=O)C=C)COC(=O)C=C [Example B2-1, reference compound] | M-3547, SI = 3.42, manufactured by TOAGOSEI CO., LTD. |  | 
11 | Isobornyl acrylate [Example A2-2, reference compound] | Isobornyl acrylate, SI = 8.30, manufactured by Osaka Organic Chemical Company |  | 
